Test results: patent US20250027930A1, “SMALL MOLECULES FOR REPROGRAMING ANTI-TUMOR IMMUNITY OF T CELLS” (THE SCRIPPS RESEARCH INSTITUTE, priority 2021, published 2025)

How the values were obtained:
OT-1 cells = assay: OT-I-Tcf7GFP splenocyte screen: proliferation and Tim3−TCF-1+ ratio; assay type: cell-based, mouse; settings: Day7; for Tim3^−TCF-1^+ ratio of CD8^+ T cells (%): w/o 2.6
Procedure: Cell number was recorded on day 3 and day 7. On day 7, cells were stained with anti-CD8a (PerCP-Cy5.5) and anti-Tim3 (BV421) antibodies for flow cytometry or plate reader analysis.
Because TCF1 expression positively correlates with T cell stemness, the greater signal of EGFP a T cell expresses, the less differentiated the T cell is. Furthermore, if the compound also facilitates T cells proliferation, there would be more T cells per well in comparison to the untreated control. Therefore, a compound that not only maintains TCF-1 expression but also facilitates T cell growth would produce the strongest green fluorescence intensity. […] GlcA stands for glucuronic acid.

P14 CD8+ T cells = assay type: in vivo, mouse; settings: 14 dpi LCMV-Cl13; cells treated in vitro, vs untreated
B16-OVA tumor = assay type: in vivo, mouse; settings: adoptive transfer of sugar-treated OT-1 T cells; vs untreated T cells
Procedure: Naïve splenocytes from OT-1 mice were stimulated in vitro with OVA257-264 (500 nM) and IL-2 (60 IU/mL) in the presence or absence of an added compound for 3 days at a density of 1 million/mL (100 uL/well in 96/well plate), then expanded for 4 days. On day 7, PD-1, Tim3 and TCF-1 expressions were assessed by flow cytometry by staining cells with anti-CD8a (PerCP-Cy5.5), anti-Tim3 (BV421) and anti-TCF-1 (AF488) antibodies. For adoptive transfer, 0.6M B16-OVA cells (6×10^5) were inoculated subcutaneously 3 to 5 days before transfer in C57BL/6. On the day of adoptive transfer, mice were irradiated with 5 Gy X-ray, randomized according to tumor size, and intravenously injected with 0.2-0.3M of CD8+OT-1 T cells (2×10^5) expanded under different conditions, followed by administration of 50000 IU IL-2 every 12 h for four days. In the control group, mice were injected with cell-free vehicle only. For assessment of adoptive transfer of OT-1 CD8+ T cells activated and expanded by contacting the cells with fructose, on day 9 after transfer, anti-PD-1 (100 ug/mouse) was administered to the mice that had received T cell transfer. For assessment of adoptive transfer of OT-1 CD8+ T cells activated and expanded by contacting cells with Neu5Ac, on day 14 and day 21 after transfer, anti-PD-1 (100 ug/mouse) was administered to the mice that had received T cell transfer. The tumor growth was monitored every 3 to 4 days by measuring tumor size. Percent survival was also monitored and recorded within a period of 40 days post treatment. To evaluate tumor infiltrating OT-1 T cells, 0.6M B16-OVA cells (6×10^5) were inoculated subcutaneously 3 to 5 days before transfer in C57BL/6. On the day of adoptive transfer, mice were irradiated with 5 Gy X-ray, randomized according to tumor size, and intravenously injected with 0.2-0.3M of CD8+OT-1 T cells (2×10^5) expanded under different conditions, followed by administration of 50000 IU IL-2 every 12 h for four days. Tumors were then isolated and assessed for percentage of OT-I T cells from the total CD8+ T cells and OT-1 T cell number per gram of tumor tissue. To evaluate apoptosis, Naïve OT-1 splenocytes were stimulated by OVA257-264 (500 nM) without IL-2 in the presence of absence of sugars for 5 days followed by using Annexin V Apoptosis detection kit (Biolegend). […] To evaluate other cellular characteristics, naïve OT-1 splenocytes were stimulated by OVA257-264 (500 nM) with IL-2 (60 IU/mL) in the presence or absence of sugars for 7 or 8 days. On day 7 or 8 cells were taken and analyzed by assessment of ROS, NADPH/NADP+ ratio, and GSH/GSSG ratio.

P14 cells = assay: P14 splenocyte in vitro activation, re-stimulation and expansion; assay type: cell-based, mouse; settings: 80 mM; for Fold of proliferation, Normalized to W/O: P14 cells
OT-I splenocytes = assay: OT-I splenocyte culture with purine/pyrimidine pathway compounds; assay type: cell-based, mouse
Procedure: We therefore tested if purine and pyrimidine nucleotides have similar effects as N-Acetylneuraminic acid to help maintain less differentiated phenotypes of T cells during expansion. OT-I splenocytes were cultured with 500 nM […] peptide (OVA257-264) for three days at initial cell density of 1×10^6/mL to activate and expand the CD8+ T cell population. Different concentrations of the products or intermediates in purine or pyrimidine de novo synthesis pathways were added on day 3. The tested compounds include, e.g., guanosine, deoxyguanosine, adenosine, deoxyadenosine, inosine, xanthosine, orotidine, uridine, cytidine, deoxycytidine, thymidine, deoxythymidine, 5-Aminoimidazole-4-carboxamide ribonucleotide (AICAR), orotate, and dihydroorotate. The phenotype of expanded T cells were analyzed on day 5.

[1] = Mus musculus, Splenocyte, 168 h, 80 mM, OT-1 cells, read-out: Proliferation fold, Normalized to W/O

| Compound | Tim3^−TCF-1^+ ratio of CD8^+ T cells (%) (OT-1 cells; 80 mM) | activity at 80000 µM (OT-1 cells; [1]) | Fold of proliferation, Normalized to W/O (P14 cells; Day6) | Tim3^−TCF-1^+ ratio of CD8^+ T cells (%) (P14 cells; Day6, w/o 55.0) | Fold of proliferation, Normalized to W/O (P14 cells; Day9) | Tim3^−TCF-1^+ ratio of CD8^+ T cells (%) (P14 cells; Day9, w/o 3.5) | other results |
| --- | --- | --- | --- | --- | --- | --- | --- |
| CCN(c1cc(-c2ccc(CN3CCOCC3)cc2)cc(C(=O)NCc2c(C)cc(C)[nH]c2=O)c1C)C1CCOCC1 [Taz, Tazemetostat] | – | – | – | – | – | – | cell survival when added on day 0 together with OVA257-264 peptide (OT-I CD8 T cells): all cells were found dead; fold increase in progenitor exhausted cells (OT-I CD8 T cells; day 7, Taz (3-7), 400 nM): 2.5-3.5 fold; progenitor exhausted cells (Tim3^−TCF-1^+) (OT-I CD8 T cells; day 7, Taz (3-7), 400 nM, without Taz 8.47%): 27.7% |
| O=C[C@H](O)[C@@H](O)[C@H](O)[C@H](O)C(=O)O [GlcA, glucuronic acid] | – | – | – | – | – | – | Tim3^−TCF-1^+ ratio of CD8^+ T cells (%) (OT-1 cells; 60 mM): 65.3%; activity at 60000 µM (OT-1 cells; Mus musculus, Splenocyte, 168 h, 60 mM, OT-1 cells, read-out: Proliferation fold, Normalized to W/O): 97% |
| O=C(CO)[C@@H](O)[C@H](O)[C@H](O)CO [Fructose, fructose] | 43.9% | 109% | 2.10 fold | 87.9% | 2.94 fold | 48.9% | percentages and total numbers of expanded virus-specific P14 CD8+ T cells in the spleen and liver (P14 CD8+ T cells): significantly higher; capabilities to control tumor growth (B16-OVA tumor): significantly better |
| N#Cc1cc(Nc2ncc3c(n2)CCCCC3=O)cs1 [Inhibitor G6PDi-1, reference compound] | – | – | – | – | – | – | cell proliferation (OT-I splenocytes; added on day 3, analyzed day 5): without significant impact on cell proliferation; increase of the proportion of Tim3−TCF1+ T cells by a factor (OT-I splenocytes; added on day 3, analyzed day 5): 1.5 |
| OC[C@H]1O[C@H](O[C@H]2O[C@H](CO)[C@@H](O)[C@H](O)[C@H]2O)[C@H](O)[C@@H](O)[C@@H]1O [Trehalose, trehalose] | 35.4% | 84% | 1.42 fold | 83.2% | 1.47 fold | 34.6% | – |
| NC(=O)c1ncn([C@@H]2O[C@H](COP(=O)(O)O)[C@@H](O)[C@H]2O)c1N [AICAR, 5-Aminoimidazole-4-carboxamide ribonucleotide] | – | – | – | – | – | – | cell proliferation (OT-I splenocytes; added together with N-Acetylneuraminic acid on day 3, analyzed day 5): without significant impact on cell proliferation |
